Assay results taken from US8980222B2, “Diagnostic use of endothelin ETB receptor agonists and ETA receptor antagonists in tumor imaging” (The Board of Trustees of the University of Illinois, priority 2004, dated 2015).
Like-named read-outs stand apart in the source and are kept apart here. Non-standard residues stand in square brackets, D forms with d. Residues, ends and D or L forms follow the SMILES beside them.

Assays:
tumor [1] = assay: Tumor blood flow with ETA receptor antagonists; settings: in vivo
Protocol: A study using BMS182874, an ETA receptor antagonist, also was conducted.

ETA and ETB receptors = settings: cited from earlier work
breast tumor = assay: Breast tumor blood perfusion by Laser Doppler Flowmetry in MNU-induced mammary tumor rats; format: in vivo, rat; settings: for Maximal increase in tumor perfusion (%): Laser Doppler Flowmetry, breast tumor-bearing rats
Protocol: MNU or saline treatments were carried out as intraperitoneal injections three months prior to the study. Rats were regularly palpated from four weeks after onset of the treatments. When the tumors reached an optimal size (i.e., 4-8 mm in diameter), the experiments were begun. Systemic hemodynamic and regional circulation parameters were determined at baseline, 30, 60, and 120 minutes after initiating ET-1 (50 ng/kg/min) infusion.
Blood perfusion to the mammary gland of the rats was measured using laser Doppler flowmetry as described in literature procedures (23, 24). The animals were shaved around the nipples. The skin surrounding the mammary glands was dissected out as a lambeau about 6 cm wide and 4 cm long. A standard model fiber optic probe was applied to the surface of the lambeau, and secured to the tissue by double stick tape. The lambeau was placed in a metal holder and taped down to prevent movement, then connected to a Periflux PF2b 4000 Laser Doppler Flowmetry (Perimed KB, Stockholm, Sweden). The time constant was set at 1.5 seconds and the bandwidth was set at 4 KHz.
A preclinical model of MNU-induced primary autochthonous mammary tumor was used in the following studies. This tumor model of breast cancer offers several advantages over other models (Rai et al., Cancer Chemother. Parmaacol., 51(1):21-8 (2003)). Virgin female Sprague Dawley rats were used for the study. At 48 days of age, rats received a single injection of N-methyl nitrosourea (MNU; 50 mg/kg, i.v.). Eighty percent of the animals developed tumors two months after MNU injection and 10% of total rats may die or loose weight due to MNU injection or develop a tumor after several months. Tumor appearance and location is monitored by manual mammary gland palpation and the tumor diameter is measured with a digital caliper. Rats with a tumor volume of 200-500 mm^3 were selected for the experiments.
FIG. 2 illustrates the effect of IRL-1620 on breast tumor perfusion (N=5/group). Breast tumor-bearing rats were anesthetized and mammary tumor perfusion was recorded using a Laser Doppler Flowmetry for three hours. A 15-minute stable baseline recording was obtained before the administration of saline or IRL-1620 1, 3, or 9 nmol/kg via the tail vein in a final volume of 0.2 ml. Tumor perfusion was recorded for three hours (*p<0.001 compared to vehicle-treated rats).
Animals received BQ 788 ([…]) or saline via tail vein 15 minutes before the administration of IRL-1620 (3 nmol/kg) and tumor perfusion was recorded for three hours (*p<0.001 compared to BQ 788-administered rats). Studies also were conducted to determine the effect of IRL-1620 on blood perfusion in normal mammary tissue.

tumor [2] = settings: Sonveaux et al. 2004; cited from earlier work

Compound	Selectivity for ETB receptors than ETA receptors (ETA and ETB receptors)	Maximal increase in tumor perfusion (%) (breast tumor)	also measured
Cc1noc(NS(=O)(=O)c2cccc3c(N(C)C)cccc23)c1C [BMS182874]			Tumor blood flow (tumor [1]): increased the tumor blood flow
[Ala^1, 3, 11, 15]-ET-1 (ASASSLMDKEAVYFAHLDIIW; Endothelin-1; UniProt P05305 53-73, looked up, variant C1A C3A C11A C15A) [4 Ala ET-1]	1700 times	53.96%	
ET-3: ET agonist three times more selective for ETB receptors than ETA receptors	three times more selective	47.99%	
CCCC[C@@H](NC(=O)[C@@H](Cc1cn(C(=O)OC)c2ccccc12)NC(=O)[C@H](CC(C)(C)C)NC(=O)N1[C@H](C)CCC[C@@H]1C)C(=O)O [BQ788, N-cis-2,6-dimethylpiperidinocarbonyl-L-gamma-methylleucyl-D-1-methoxycarbonyltrptophanyl-D-Nle]			Effect of antagonist on IRL-1620 induced tumor blood perfusion (breast tumor; BQ 788 0.5 μg/kg 15 minutes before IRL-1620 3 nmol/kg): completely blocked; Effect of antagonist on ET-1 induced increase in tumor blood flow (breast tumor; ET-1 induced): completely blocked
CC(C)C[C@@H]1NC(=O)[C@@H](C(C)C)NC(=O)[C@@H]2CCCN2C(=O)[C@@H](CC(=O)O)NC(=O)[C@@H](Cc2c[nH]c3ccccc23)NC1=O [BQ123] (cyclo(L[dW][dD]P[dV]))			Tumor blood flow (tumor [2]): significantly improved
CC[C@H](C)[C@H](NC(=O)[C@H](CC(=O)O)NC(=O)[C@H](CC(C)C)NC(=O)[C@H](Cc1c[nH]cn1)NC(=O)[C@@H]1CSSC[C@H](N)C(=O)N[C@@H](CO)C(=O)N[C@H]2CSSC[C@H](NC(=O)[C@H](CCC(=O)O)NC(=O)[C@H](CCCCN)NC(=O)[C@H](CC(=O)O)NC(=O)[C@H](CCSC)NC(=O)[C@H](CC(C)C)NC(=O)[C@H](CO)NC(=O)[C@H](CO)NC2=O)C(=O)N[C@@H](C(C)C)C(=O)N[C@@H](Cc2ccc(O)cc2)C(=O)N[C@@H](Cc2ccccc2)C(=O)N1)C(=O)N[C@H](C(=O)N[C@@H](Cc1c[nH]c2ccccc12)C(=O)O)[C@@H](C)CC [ET-1, Endothelin-1]	equal affinity	46.19%	Breast tumor perfusion after exogenous infusion (breast tumor; rat, in vivo): transient increase; Perfusion to major organs (breast tumor; rat, in vivo): without altering perfusion
